The values below come from PubChem BioAssay (NCI).

Some test systems named below: COLO 205 colon; HCC-2998 colon; HOP-92 NSCLC; HS 578T breast; NCI-H226 lung; NCI-H23 lung; NCI-H460 lung; OVCAR-3 ovarian; SN12C renal; UACC-62 melanoma.
What all share (assay): growth of human tumour cells (NCI), 48 h

Several values for one entry are separate records, joined by “and”; a condition that tells them apart may be missing. Identical values can stand only once.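 Where inhibition never reached the appropriate level, the endpoint shown equals the highest concentration tested. Otherwise, values were interpolated linearly from a five-concentration, 48-hour dose response in 96-well plates. At the GI50, growth is halved. The concentration for full growth arrest is given as TGI.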

Regarding `Cc1c(C(=O)N/N=C/c2ccc(O)cc2)nnn1-c1ccnc2c(C(F)(F)F)cccc12`, the GI50 in the assay on COLO 205 colon is greater than 100 µM; with HCC-2998 colon, greater than 100 µM; with HOP-92 NSCLC, 17 µM; with HS 578T breast it was 44.6 µM; in the assay on NCI-H226 lung, 36.9 µM; with NCI-H23 lung it was 29.3 µM. In addition, the GI50 is greater than 100 µM with NCI-H460 lung, greater than 100 µM with OVCAR-3 ovarian, 16.3 µM with SN12C renal and greater than 100 µM in the assay with UACC-62 melanoma. Further, the TGI is greater than 100 µM in the assay with COLO 205 colon; greater than 100 µM in the assay on HCC-2998 colon; 50.4 µM in the assay with HOP-92 NSCLC; greater than 100 µM in the assay on HS 578T breast; greater than 100 µM in the assay with NCI-H226 lung; greater than 100 µM with NCI-H23 lung. For the same compound, the TGI was greater than 100 µM with NCI-H460 lung, greater than 100 µM with OVCAR-3 ovarian, 83.3 µM in the assay with SN12C renal and greater than 100 µM in the assay on UACC-62 melanoma.

Consider `COc1ccc(-n2c(-c3ccc(NC(=O)CCCl)cc3)nnc2-c2cc(OC)c(OC)c(OC)c2)cc1`, for which the GI50 in the assay with COLO 205 colon was 2.02 µM; in the assay on HCC-2998 colon, 3.05 µM; with HOP-92 NSCLC, 4.1 µM; in the assay on HS 578T breast, 3.89 µM; in the assay on NCI-H226 lung it was 10.8 µM; in the assay with NCI-H23 lung, 3.66 µM. For the same compound, the GI50 was 2.5 µM with NCI-H460 lung, 2.58 µM in the assay on OVCAR-3 ovarian, 7.33 µM with SN12C renal and 2.54 µM with UACC-62 melanoma. In addition, the TGI is 4.75 µM with COLO 205 colon; 7.07 µM in the assay with HCC-2998 colon; greater than 14.3 µM in the assay on HOP-92 NSCLC; 12.6 µM in the assay with HS 578T breast; greater than 14.3 µM with NCI-H226 lung; greater than 14.3 µM in the assay on NCI-H23 lung. Further, the TGI in the assay with NCI-H460 lung is 7.33 µM; in the assay on OVCAR-3 ovarian it was 7.78 µM; with SN12C renal, greater than 14.3 µM; in the assay on UACC-62 melanoma, 6.92 µM.

For `c1ccc(Oc2c3ccccc3nc3ccccc23)cc1`, the GI50 with COLO 205 colon is 2.61 µM; in the assay on HCC-2998 colon, 2.87 µM; in the assay with HOP-92 NSCLC it was 2.24 µM; with HS 578T breast, 6.99 µM; in the assay on NCI-H226 lung, 6.89 µM; in the assay with NCI-H23 lung, 3.71 µM. In addition, the GI50 with NCI-H460 lung was 3.29 µM; in the assay with OVCAR-3 ovarian it was 3.41 µM; with SN12C renal, 5.27 µM; with UACC-62 melanoma it was 4.97 µM. Moreover, the TGI with COLO 205 colon was 6.07 µM; in the assay with HCC-2998 colon, 7.97 µM; in the assay with HOP-92 NSCLC, 8.63 µM; in the assay on HS 578T breast, greater than 100 µM; in the assay on NCI-H226 lung it was 27.1 µM; with NCI-H23 lung it was 14.3 µM. Further, the TGI in the assay on NCI-H460 lung was 10.3 µM; with OVCAR-3 ovarian, 13.2 µM; with SN12C renal, 16.8 µM; in the assay with UACC-62 melanoma, 16.9 µM.

Turning to `O=C1NC(=O)[C@@H](c2cn3c4c(cccc24)CCC3)[C@@H]1c1c[nH]c2ccccc12`, the GI50 was 0.273 µM and 0.326 µM with COLO 205 colon; 0.59 µM and 0.49 µM in the assay on HCC-2998 colon; 0.354 µM and 1.68 µM in the assay with HOP-92 NSCLC; 0.343 µM and 0.323 µM with HS 578T breast; > 2.61 µM and 1.48 µM with NCI-H226 lung; 0.545 µM and 0.53 µM in the assay with NCI-H23 lung. The GI50 in the assay with NCI-H460 lung was 0.365 µM and 0.372 µM; with OVCAR-3 ovarian it was 0.273 µM and 0.28 µM; in the assay on SN12C renal it was 0.556 µM and 0.888 µM; in the assay with UACC-62 melanoma, 0.443 µM and 0.51 µM. The TGI in the assay with COLO 205 colon is 0.973 µM and 1.14 µM; with HCC-2998 colon, > 10 µM and 5.82 µM; in the assay with HOP-92 NSCLC, > 10 µM and 25.5 µM; in the assay on HS 578T breast, > 10 µM and 20.9 µM; with NCI-H226 lung, > 10 µM and 17.9 µM; in the assay with NCI-H23 lung it was > 10 µM and 16.8 µM. In addition, the TGI in the assay with NCI-H460 lung was > 10 µM and 8.55 µM; in the assay with OVCAR-3 ovarian, > 2.22 µM and 0.789 µM; in the assay on SN12C renal, > 10 µM and 15.9 µM; in the assay on UACC-62 melanoma, > 10 µM and 18.3 µM.

On to `Cc1ccc2c(/C=C/C(=O)c3cc(CN4CCOCC4)c(O)c4nc(C)ccc34)cc(CN3CCOCC3)c(O)c2n1`, for which the GI50 is 1.82 µM with COLO 205 colon; 1.1 µM in the assay with HCC-2998 colon; 1.11 µM in the assay with HOP-92 NSCLC; 1.28 µM in the assay with HS 578T breast; 1.24 µM in the assay with NCI-H226 lung; 1.13 µM with NCI-H23 lung. The GI50 is 0.385 µM in the assay on NCI-H460 lung, 0.875 µM with OVCAR-3 ovarian, 0.683 µM in the assay on SN12C renal and 0.432 µM in the assay with UACC-62 melanoma. For the same compound, the TGI in the assay on COLO 205 colon was 4.49 µM; in the assay with HCC-2998 colon, 2.76 µM; in the assay with HOP-92 NSCLC, 9.78 µM; with HS 578T breast, greater than 100 µM; in the assay on NCI-H226 lung it was 4.13 µM; in the assay on NCI-H23 lung, 4.5 µM. Moreover, the TGI with NCI-H460 lung amounted to 9.37 µM; in the assay on OVCAR-3 ovarian, 4.6 µM; in the assay with SN12C renal, 12.4 µM; with UACC-62 melanoma, 7.48 µM.

Take `Cc1c(C(=O)CCl)c(=O)n(-c2ccccc2)n1C`: the GI50 was 3.28 µM in the assay with COLO 205 colon; 12.9 µM in the assay with HCC-2998 colon; 1.56 µM in the assay with HOP-92 NSCLC; 0.922 µM with HS 578T breast; 13.3 µM in the assay on NCI-H226 lung; 5.17 µM in the assay on NCI-H23 lung. Also, the GI50 with NCI-H460 lung is 7.94 µM; with OVCAR-3 ovarian, 1.98 µM; in the assay on SN12C renal, 5.93 µM; with UACC-62 melanoma, 4.78 µM. Moreover, the TGI with COLO 205 colon stood at 11.2 µM; in the assay on HCC-2998 colon, 26.6 µM; in the assay with HOP-92 NSCLC, 13.2 µM; with HS 578T breast it was 5.52 µM; in the assay on NCI-H226 lung it was 33.2 µM; in the assay on NCI-H23 lung, 21.1 µM. In addition, the TGI with NCI-H460 lung was found to be 32.1 µM; in the assay with OVCAR-3 ovarian it was 4.94 µM; with SN12C renal it was 28.6 µM; with UACC-62 melanoma, 18.9 µM.

`O=C(Nc1ncc([N+](=O)[O-])s1)c1cccc([N+](=O)[O-])c1`: the GI50 is 4 µM with COLO 205 colon; 3.2 µM with HCC-2998 colon; 1.99 µM in the assay with HOP-92 NSCLC; 1.72 µM in the assay with HS 578T breast; 4.1 µM in the assay on NCI-H226 lung; 2.87 µM in the assay with NCI-H23 lung. The GI50 is 2.8 µM with NCI-H460 lung, 3.18 µM in the assay on OVCAR-3 ovarian, 2.73 µM in the assay on SN12C renal and 2.38 µM in the assay with UACC-62 melanoma. Further, the TGI in the assay with COLO 205 colon is 24.7 µM; with HCC-2998 colon, greater than 100 µM; in the assay on HOP-92 NSCLC, 6.86 µM; with HS 578T breast, greater than 28.4 µM; in the assay with NCI-H226 lung it was greater than 60.1 µM; with NCI-H23 lung it was greater than 78.2 µM. Moreover, the TGI with NCI-H460 lung was greater than 100 µM; in the assay with OVCAR-3 ovarian, greater than 100 µM; with SN12C renal, greater than 53.3 µM; with UACC-62 melanoma, greater than 32.7 µM.
